We go through 45 compounds from patent US9963462B2 (priority 2015, dated 2018).

Structures are written as SMILES.

Test [1] concerns BH4 production in human peripheral blood mononuclear cells (PBMCs). The test can be described thus: hPBMC assay, inhibition of BH4 production by LC-MS (anti-CD3/anti-CD28 stimulated). It is filed as cell-based. To be noted: PBMC, read-out: hPBMC IC50.
Experimental: hPBMC Assay: PBMCs were either purchased or isolated from fresh human blood and used either as a fresh preparation or frozen for later use. The assay system was prepared by pre-treating the assay plates overnight with a solution containing anti-human CD3 antibody. Human PBMCs were suspended in assay medium and plated into the assay plates at a density of 1-4×10^5 cells per well. The desired concentration of the test compound was added to each well. A solution of human anti-CD28 antibody was also added to each well. Plates were incubated for 12-48 hours at 37° C. and 5% CO2. Assay plates were centrifuged for 5-15 minutes at 1-3000 RMP and supernatants were removed. The cells were lysed, sealed and used directly or frozen at −80° C. LC-MS was used to quantify the amount of inhibition of BH4 production.
PBMCs were either purchased or isolated from fresh human blood and used either as a fresh preparation or frozen for later use. The assay system was prepared by pre-treating the assay plates overnight with a solution containing anti-human CD3 antibody. Human PBMCs were suspended in assay medium and plated into the assay plates at a density of 1-4×10^5 cells per well. The desired concentration of the test compound was added to each well. A solution of human anti-CD28 antibody was also added to each well. Plates are incubated for 12-48 hours at 37° C. and 5% CO2. Assay plates were centrifuged for 5-15 minutes at 1-3000 RMP and supernatants were removed. The cells were lysed, sealed and used directly or frozen at −80° C.
The subject of test [2] is BH4 levels in SK-N-BE (2) cells. The test can be described thus: SKN-N-BE (2) cellular assay, BH4 levels by LC-MS. Conditions: Homo sapiens, SKNBE2, read-out: SK-N-BE(2) IC50, SK-N-BE (2) cells, BH4 levels by LC-MS. It is filed as cell-based.
In test [3] the target is SNAP-hSPR (sepiapterin reductase, SPR) (Homo sapiens, UniProt P35270). The test can be described thus: biochemical. Type of test: binding. Conditions: terbium labelled SNAP-hSPR / SSZ labelled SNAP-EGFP; read-out: hTR-FRET IC50.
Sequence of SNAP-hSPR (sepiapterin reductase, SPR) (P35270 whole entry): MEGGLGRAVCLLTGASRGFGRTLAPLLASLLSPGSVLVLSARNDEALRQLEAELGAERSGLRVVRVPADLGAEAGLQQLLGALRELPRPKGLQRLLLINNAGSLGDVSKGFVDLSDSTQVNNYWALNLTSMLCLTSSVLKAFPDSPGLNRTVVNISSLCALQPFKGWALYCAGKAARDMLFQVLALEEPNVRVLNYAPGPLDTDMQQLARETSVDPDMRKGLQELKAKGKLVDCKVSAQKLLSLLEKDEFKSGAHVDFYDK

Consider `Cc1c(C(=O)N2CCN(C3CCC3)CC2)cnn1-c1nn2cccc2c(=O)[nH]1` [Q-0821], for which the IC50 worked out at 51 nM in test [1], 100 nM in test [2] and 1 nM in test [3].

Consider `Cc1c(C(=O)N2CCN(C(=O)OC(C)(C)C)C[C@H]2C)cnn1-c1nn2cccc2c(=O)[nH]1` [Q-0892], for which the IC50 in test [1] was 76 nM; in test [2], 400 nM; in test [3] it was 2 nM.

Take `Cc1c(C(=O)N2CCC(N3CCC(F)(F)CC3)CC2)cnn1-c1nn2cccc2c(=O)[nH]1` [Q-0995]: the IC50 in test [1] turned out to be 180 nM; in test [2], 600 nM; in test [3], 2 nM.

`Cc1c(C(=O)N2CC(N3CCC(F)(F)C3)C2)cnn1-c1nc2c(c(=O)[nH]1)CCC2` [Q-0937]: the IC50 in test [1] turned out to be 130 nM; in test [2] it was 800 nM; in test [3], 4 nM.

Consider `C=CCC(C#N)C1CCN(C(=O)c2cnn(-c3nn4cccc4c(=O)[nH]3)c2C)CC1` (stereo not drawn) [Q-0978], for which the IC50 in test [1] worked out at 59 nM; in test [2], 81 nM; in test [3], 1 nM.

With `Cc1c(C(=O)N2CCN(CC(F)(F)F)C(C)C2)cnn1-c1nn2cccc2c(=O)[nH]1` (stereo not drawn) [Q-0908], the IC50 in test [1] is 130 nM; in test [2], 300 nM; in test [3], 1 nM.

With `CCC1(C#N)CCN(C(=O)c2nnn(-c3nn4cccc4c(=O)[nH]3)c2C)CC1` [Q-0777], the IC50 in test [1] turned out to be 55 nM; in test [2], 300 nM; in test [3] it was 1 nM.

As for `Cc1c(C(=O)N2CCN(C(=O)OC(C)(C)C)C[C@@H]2C)cnn1-c1nn2cccc2c(=O)[nH]1` [Q-0915], the values for the IC50 in test [1], in test [2] and in test [3] were 92 nM, 500 nM and 2 nM, respectively.

For the compound `Cc1c(C(=O)N2CCC3(CC2)CC3C(=O)N2CCCCC2)cnn1-c1nn2cccc2c(=O)[nH]1` (stereo not drawn) [Q-1057], the IC50 was found to be 67 nM in test [1], 100 nM in test [2] and 1 nM in test [3].

Take `Cc1c(C(=O)N2C[C@@H]3CCC(F)(F)[C@@H]3C2)cnn1-c1nn2cccc2c(=O)[nH]1` [Q-0896]: the results for the IC50 in test [1], in test [2] and in test [3] were 49 nM, 300 nM and 1 nM, respectively.

With `Cc1c(C(=O)N2CC[C@@H](N(C)C(=O)OC(C)(C)C)C2)cnn1-c1nc2c(c(=O)[nH]1)CCC2` [Q-0571], the values for the IC50 in test [1], in test [2] and in test [3] were 67 nM, 73 nM and 3 nM, respectively.

As for `Cc1c(C(=O)N2CCC(S(=O)(=O)c3ccc(F)c(F)c3)CC2)cnn1-c1nn2cccc2c(=O)[nH]1` [Q-0591], the IC50 in test [1] is 45 nM; in test [2] it was 100 nM; in test [3], 3 nM.

Turning to `Cc1c(C(=O)N2CCC(C(F)(F)F)CC2)cnn1-c1nc2c(c(=O)[nH]1)CCC2` [Q-0418], the IC50 in test [1] is 32 nM; in test [2] it was 50 nM; in test [3] it was 2 nM.

Take `CCC(=C1CCN(C(=O)c2cnn(-c3nn4cccc4c(=O)[nH]3)c2C)CC1)C(F)(F)F` [Q-1064]: the IC50 in test [1] amounted to 220 nM; in test [2], 200 nM; in test [3], 2 nM.

`Cc1c(C(=O)N2CC3(C2)CC(F)(F)C3)cnn1-c1nn2cccc2c(=O)[nH]1` [Q-0816]: the results for the 50% inhibitory concentration (IC50) in test [1], in test [2] and in test [3] were 170 nM, 600 nM and 1 nM, respectively.

Consider `Cc1c(C(=O)N2CC(N3CCCC(F)(F)C3)C2)cnn1-c1nn2cccc2c(=O)[nH]1` [Q-0993], for which the values for the IC50 in test [1], in test [2] and in test [3] were 160 nM, 1100 nM and 3 nM, respectively.

Regarding `Cc1c(C(=O)N2CCN(C(=O)OC(C)(C)C)C(C)C2)cnn1-c1nn2cccc2c(=O)[nH]1` (stereo not drawn) [Q-0887], the IC50 was 57 nM in test [1], 200 nM in test [2] and 1 nM in test [3].

For `Cc1c(C(=O)N2CC3CCCC(C2)N3C(=O)OC(C)(C)C)cnn1-c1nn2cccc2c(=O)[nH]1` [Q-0972], the IC50 stood at 14 nM in test [1], 65 nM in test [2] and 1 nM in test [3].

As to `Cc1c(C(=O)N2CCN(c3ccc(C(F)(F)F)cn3)CC2)cnn1-c1nn2cccc2c(=O)[nH]1` [Q-0836], the IC50 in test [1] was found to be 52 nM; in test [2], 300 nM; in test [3] it was 5 nM.

`CCC1(C#N)CC12CCN(C(=O)c1cnn(-c3nn4cccc4c(=O)[nH]3)c1C)CC2` (stereo not drawn) [Q-1053]: the figures for the half-maximal inhibitory concentration (IC50) in test [1], in test [2] and in test [3] were 230 nM, 200 nM and 1 nM, respectively.

Take `Cc1c(C(=O)N2CCN(CCC(F)(F)F)CC2)cnn1-c1nn2cccc2c(=O)[nH]1` [Q-1060]: the IC50 in test [1] came out at 220 nM; in test [2], 200 nM; in test [3], 2 nM.

On to `Cc1c(C(=O)N2CCC(C3(C#N)CC3)CC2)cnn1-c1nn2cccc2c(=O)[nH]1` [Q-0817], for which the IC50 in test [1] came to 44 nM; in test [2], 200 nM; in test [3], 1 nM.

As for `Cc1c(C(=O)N2CC3CCC(C2)C3(O)C(F)(F)F)cnn1-c1nn2cccc2c(=O)[nH]1` (stereo not drawn) [Q-0837], the IC50 was found to be 63 nM in test [1], 200 nM in test [2] and 1 nM in test [3].

For the compound `Cc1c(C(=O)N2CCC(C(C#N)CCF)CC2)cnn1-c1nn2cccc2c(=O)[nH]1` (stereo not drawn) [Q-1062], the IC50 in test [1] worked out at 97 nM; in test [2], 100 nM; in test [3], 1 nM.

On to `Cc1c(C(=O)N2CCC(C3(C(F)(F)F)CC3)CC2)cnn1-c1nc2c(c(=O)[nH]1)CCC2` [Q-0943], for which the results for the IC50 in test [1], in test [2] and in test [3] were 38 nM, 18 nM and 2 nM, respectively.

As to `Cc1c(C(=O)N2CCC(c3noc(C4CC4)n3)CC2)cnn1-c1nn2cccc2c(=O)[nH]1` [Q-0953], the IC50 in test [1] stood at 21 nM; in test [2], 58 nM; in test [3], 1 nM.

Consider `Cc1c(C(=O)N2CCC(C(C#N)CCF)CC2)cnn1-c1nc2c(c(=O)[nH]1)CCC2` (stereo not drawn) [Q-1063], for which the IC50 is 120 nM in test [1], 55 nM in test [2] and 2 nM in test [3].

In the case of `Cc1c(C(=O)N2CCN(C(=O)OC(C)(C)C)[C@H](C)C2)cnn1-c1nn2cccc2c(=O)[nH]1` [Q-0899], the IC50 in test [1] stood at 48 nM; in test [2] it was 300 nM; in test [3] it was 1 nM.

Turning to `Cc1c(C(=O)N2CCC(C3(C#N)CC3)CC2)cnn1-c1nc2c(c(=O)[nH]1)CCC2` [Q-0948], the values for the IC50 in test [1], in test [2] and in test [3] were 53 nM, 100 nM and 1 nM, respectively.

Take `CCC1(C#N)CCN(C(=O)c2cnn(-c3nc4c(c(=O)[nH]3)CCC4)c2C)CC1` [Q-0519]: the IC50 in test [1] came out at 120 nM; in test [2] it was 53 nM; in test [3] it was 3 nM.

On to `Cc1c(C(=O)N2CCC(S(=O)(=O)C(C)C)CC2)cnn1-c1nn2cccc2c(=O)[nH]1` [Q-0977], for which the IC50 in test [1] was determined as 86 nM; in test [2], 500 nM; in test [3], 1 nM.

`Cc1c(C(=O)N2CCN3CCC[C@@H]3C2)cnn1-c1nn2cccc2c(=O)[nH]1` [Q-0693]: the IC50 worked out at 450 nM in test [1], 800 nM in test [2] and 3 nM in test [3].

Regarding `Cc1c(C(=O)N2CCC3(CC2)CC3C(=O)N(C)C2CC2)cnn1-c1nn2cccc2c(=O)[nH]1` (stereo not drawn) [Q-0930], the IC50 in test [1] came to 58 nM; in test [2], 300 nM; in test [3] it was 1 nM.

Consider `Cc1c(C(=O)N2CC(F)(c3ccccc3)C2)cnn1-c1nn2cccc2c(=O)[nH]1` [Q-1038], for which the IC50 in test [1] came to 340 nM; in test [2], 300 nM; in test [3] it was 2 nM.

As for `CCC(C#N)C1(O)CCN(C(=O)c2cnn(-c3nn4cccc4c(=O)[nH]3)c2C)CC1` (stereo not drawn) [Q-1055], the IC50 amounted to 160 nM in test [1], 700 nM in test [2] and 1 nM in test [3].

As to `Cc1c(C(=O)N2CCC(C3(C(F)(F)F)CC3)CC2)cnn1-c1nn2cccc2c(=O)[nH]1` [Q-0944], the IC50 in test [1] is 36 nM; in test [2] it was 28 nM; in test [3], 1 nM.

As to `Cc1c(C(=O)N2CC3(CCN(CC(F)(F)F)CC3)C2)cnn1-c1nn2cccc2c(=O)[nH]1` [Q-0951], the IC50 in test [1] was found to be 45 nM; in test [2], 400 nM; in test [3], 2 nM.

As to `Cc1c(C(=O)N2CCC3(CC2)CN(C(=O)OC(C)(C)C)C3)cnn1-c1nn2cccc2c(=O)[nH]1` [Q-0768], the IC50 in test [1] was 45 nM; in test [2], 200 nM; in test [3] it was 2 nM.

As to `CC[C@H](C#N)C1CCN(C(=O)c2cnn(-c3nc4c(c(=O)[nH]3)CCC4)c2C)CC1` [Q-1041], the results for the IC50 in test [1], in test [2] and in test [3] were 28 nM, 46 nM and 1 nM, respectively.

Consider `Cc1c(C(=O)N2CCN(C3CC3)CC2)cnn1-c1nc2c(c(=O)[nH]1)CCC2` [Q-1022], for which the IC50 amounted to 41 nM in test [1], 100 nM in test [2] and 2 nM in test [3].

With `Cc1c(C(=O)N2CCC3(CC2)CN(C(=O)OC(C)(C)C)C3)cnn1-c1nc2c(c(=O)[nH]1)CCC2` [Q-0924], the IC50 is 51 nM in test [1], 200 nM in test [2] and 2 nM in test [3].

As to `Cc1c(C(=O)N2CCC(c3cccnc3F)CC2)cnn1-c1nn2cccc2c(=O)[nH]1` [Q-1003], the IC50 in test [1] was 51 nM; in test [2], 100 nM; in test [3], 1 nM.

With `Cc1c(C(=O)N2CCC(C(F)F)CC2)cnn1-c1nn2cccc2c(=O)[nH]1` [Q-0926], the IC50 turned out to be 45 nM in test [1], 200 nM in test [2] and 1 nM in test [3].

Turning to `Cc1c(C(=O)N2CCC3(CC2)CC(F)(F)C3)cnn1-c1nn2cccc2c(=O)[nH]1` [Q-0690], the figures for the IC50 in test [1], in test [2] and in test [3] were 72 nM, 200 nM and 2 nM, respectively.

For the compound `Cc1c(C(=O)N2CCN(c3ccc(Cl)cn3)CC2)cnn1-c1nn2cccc2c(=O)[nH]1` [Q-0835], the IC50 in test [1] came out at 39 nM; in test [2], 100 nM; in test [3] it was 2 nM.
